Data set [1] has as its system RAW264.7 cells. The experiment in a line: RAW264.7 cells challenged with GAPDH for cytokine (TNF) elicitation, ELISA. As to conditions: 50 μg/ml GAPDH, 4 hours, FIG. 2. The data set is classed as cell-based, murine. As for the experimental part:
Murine macrophage-like RAW264.7 cells were obtained from the American Type Tissue collection (ATTC). The RAW264.7 cells were cultured in Dulbecco's Modified Essential Medium (DMEM) (Gibco) supplemented with 1% heat-inactivated fetal bovine serum (FBS) (BioWhittaker), and 2 mM L-glutamine, and 100 μg/ml penicillin and streptomycin (all from Sigma). Raw264.7 cultures were incubated at 37° C. under 5% CO2. The cells were serum-deprived in 1% FBS medium for the purpose of slowing the cell cycle to synchronize the cell population. Serum deprivation of the cells also limits available growth factors, minimizing the level of intracellular signaling in pathways that lead to the activation of mitogen-activated protein (MAP) kinases. It is interesting to note that immune challenges such as bacterial endotoxin (LPS) also activate MAP kinases to generate inflammatory responses, and thus high levels of FBS would interfere with the detection of MAP kinase signals that are elicited by the specific immune challenges that this study investigates. RAW264.7 cells were used at approximately 70% confluence, and all treatments were carried out in serum-free Opti-MEM I medium.
RAW264.7 cells at approximately 70% confluence were kept in serum-free Opti-MEM I for 20 minutes prior to treatments. […]
In general terms: In an ELISA, binding on a coated surface is turned into a signal by an enzyme label.

Data set [2] concerns Peritoneal macrophages. The experiment in a line: TNF response of peritoneal macrophages from wildtype, TLR2, TLR4 or RAGE deficient mice to GAPDH. The data set is classed as cell-based. To be noted: FIG. 3; for TNF release: 50 μg/ml GAPDH. As for the experimental part:
Peritoneal macrophages harvested from Wildtype, Toll-like receptor (TLR) 2, TLR4, or Receptor for Advanced Glycation Endproducts (RAGE) deficient mice were resuspended in RPMI1640 medium (Gibco) supplemented with 10% FBS and 2 mM L-glutamine, and 100 μg/ml penicillin and streptomycin, and plated at 1×10^6 cells/well into 24-well Primaria tissue culture plates (Falcon). Cultures were maintained for 24 h at 37° C. under 5% CO2. 30 minutes prior to experimentation, culture medium was replaced by serum free Opti-MEM I medium, and all treatments were conducted in serum free Opti-MEM I medium as described.
RAW264.7 cells at approximately 70% confluence were kept in serum-free Opti-MEM I for 20 minutes prior to treatments. Cells were challenged with a concentration range of purified recombinant GAPDH (produced on site) to determine concentration-dependent responsiveness of inflammatory mediator production. The concentration range consisted of seven concentrations of GAPDH in a five-fold dilution series (50 μg/ml, 10 μg/ml, 2 μg/ml, 0.4 μg/ml, 0.08 μg/ml, 0.016 μg/ml, 0 μg/ml). Cells were incubated at 37° C. and 5% CO2 for 4 hours (TNF). After treatment, the media was harvested and transferred to tubes, and M-cell lysis reagent was applied to the cells. […] The media samples were applied to Enzyme-Linked ImmunoSorbent Assays (ELISA) directed against mouse-TNF (all ELISA reagents were obtained from R+D systems). These ELISA plates were set up and run according to the manufacturer's recommendations. Briefly, samples were incubated overnight in the ELISA plate on a rocker at 4° C. Plates were washed 3× with phosphate-buffered saline supplemented with 0.05% TWEEN-20, and detection antibody diluted at 1:2000 in 1% bovine serum albumin (BSA) was applied to the plates for 2 hours. The plates were washed again as above, and strepavidin-HRP diluted at 1:2000 in 1% BSA was applied to the plates for 15 minutes. The plates were washed again as above, then developed by applying substrate reagent to each well. Reactions were stopped by adding 2M H2SO4 when the standard curve had become obvious, typically 8 to 10 minutes.

Data set [3] deals with IκBα. The experiment in a line: RAW264.7 cells challenged with GAPDH or LPS, IκBα degradation (NF-κB pathway) by Western blot. The data set is classed as cell-based, murine. As to conditions: 50 μg/ml GAPDH or 20 ng/ml LPS, time-course 0-180 min, FIG. 4. As for the experimental part: (§1) RAW264.7 cells at approximately 70% confluence were kept in serum-free Opti-MEM I for 20 minutes prior to treatments. Cells were challenged with either GAPDH or LPS in a time-course with […] time points (180 min, 120 min, 60 min, 30 min, 15 min, and 0 min). The GAPDH treatment consisted of purified GAPDH diluted to 50 μg/ml in Opti-MEM I. The LPS treatment consisted of LPS (sonicated approximately 30 minutes before use) diluted to 20 ng/ml into Opti-MEM I. Treatments used for time-course experiments were incubated in a 37° C. water bath to maintain culture temperature between time points and sonicated for five minutes before use. […] Bound IκBα antibody was detected using a 1:2000 dilution of HRP-conjugated anti-mouse IgG in 2.5% milk; bound JNK antibody was detected using a 1:2000 dilution of HRP-conjugated anti-rabbit IgG in 2.5% milk. […]
(§2) RAW264.7 macrophage-like cells were challenged with either 50 μg/ml GAPDH or 20 ng/ml LPS in a time-course consisting of six time points ranging from 180 min to 0 min. […] Protein assays were conducted on cell lysates in order to standardize the quantity of protein loaded into each well of SDSPAGE gels for separation. […]

Data set [4] relates to JNK. The experiment in a line: RAW264.7 cells challenged with GAPDH or LPS, JNK activation by Western blot. It is filed as cell-based, murine. As to conditions: 50 μg/ml GAPDH or 20 ng/ml LPS. As for the experimental part: as §1, §2
In general terms: In western blotting, separated proteins are transferred to a membrane and probed.

Data set [5] deals with human whole blood. The experiment in a line: Human whole blood assay, plasma TNF by ELISA. The data set is classed as cell-based. As for the experimental part: Human whole blood was obtained from anonymous donors from the Long Island Blood Services. The blood was aliquotted into 48-well plates at 250 μl/well. Aliquots were then treated as indicated at 37° C. for four hours. Samples were centrifuged to separate plasma at 5000 rpm for five minutes at room temperature. TNF levels in the plasma were determined by ELISA as described above.
IgG from α-GAPDH #4418 antiserum was purified using protein A/G sepharose (Pierce). Purified IgG was used to test for the ability of α-GAPDH #4418 to neutralize GAPDH activity. Six conditions were tested: GAPDH (10 μg/ml) alone, GAPDH plus non-specific rabbit IgG (100 ug/ml), GAPDH plus α-GAPDH #4418 (100 ug/ml), α-GAPDH #4418 alone, non-specific rabbit IgG alone. The GAPDH plus α-GAPDH #4418 treatment was pre-incubated at room temperature for 30 minutes prior to applying the mixture to the whole blood.

In data set [6] the test system is mice. The experiment in a line: GST-GAPDH challenge in mice, clinical sickness scoring. It is filed as in vivo. As to conditions: FIG. 9.
Data set [7] relates to cultured macrophages. The data set is described as follows: GST-GAPDH on cultured macrophages, inflammatory responses. To be noted: FIG. 7. It is filed as cell-based.

For the substance “GAPDH: purified recombinant human GAPDH (produced on site), tested as candidate inflammatory cytokine”, the TNF release entry in data set [1] is given as “approximately 2250 pg/mg of cellular protein”; in data set [2] (RAGE deficient macrophages), “approximately 4500 pg TNF/mg cell protein”; in data set [2] (TLR2 deficient macrophages), roughly 5000 pg TNF/mg cell protein; in data set [2] (wild type macrophages), “approximately 6000 pg TNF/mg cellular protein”. The TNF response result in data set [2] (TLR4 deficient macrophages) is reported as “did not mount a significant response”. Moreover, the “basal level of IκBα (degradation)” value in data set [3] was “decreased dramatically and was nearly undetectable by 30 minutes post treatment”. For the same substance, the “increase in activated JNK levels” value is listed as “approximately eight-fold” in data set [4] (30 minutes after challenge) and “approximately fifteen-fold” in data set [4] (60 minutes after challenge). In data set [5] (10 μg/ml challenge, four hours, human whole blood, FIG. 5), the “plasma TNF levels” value is “approximately 450 pg/ml”.

Turning to “GST-GAPDH: purified recombinant GST-GAPDH, a stable tetramer”, the “inflammatory cytokine response from human blood” value in data set [5] (FIG. 8) was “elicit inflammatory cytokine response”. Moreover, in data set [5] (human blood, FIG. 8), the “interaction of inflammatory response with LPS” value is recorded as “synergistic with LPS”. In addition, the “sickness by clinical scoring parameters (piloerection, closed eyes, diarrhea, tremoring, activity, relative temperature)” value in data set [6] is given as “cause sickness”. In addition, in data set [7], the “inflammatory responses from cultured macrophages” value is on record as “elicits inflammatory responses”.

These data come from US8715658B2, “Methods for treating conditions mediated by the inflammatory cytokine cascade using GAPDH inhibitors” (The Feinstein Institute for Medical Research, priority 2009, dated 2014).
